Test results: PubChem BioAssay AID652113 (The Scripps Research Institute Molecular Screening Center, 2013)

Tested on: PAMPA artificial membrane permeability, LC-MS, 5 h
Assay: PubChem AID 652113
Settings: stronger effect = higher value

- permeability: 16.5 ×10⁻⁶ cm/s
Compound: COC(=O)c1cc(Br)cnc1N1CCC(NC2CCCCC2)C(O)C1 (stereo unspecified)
